Experimental data published in publication PMC10508484, “Development and application of a PBPK modeling strategy to support antimalarial drug development” (CPT: Pharmacometrics & Systems Pharmacology, 2023).
Values joined by “and” are separate entries in the source; they are usually repeats but may differ in a detail not shown here. Equal values may be shown once. Read-outs that look alike come from different tables or passages of the source. Values belong to the molecule of their own block, whether it stands above or below them.

Columns and labels:
Caco-2 cells = conditions: calibrated against propranolol; plasma as medium for atovaquone and piperaquine; ref Charman et al., 2020 1; cited from earlier work
[1] = In vitro flags for victim and perpetrator properties conferring DDI liability; format: in vitro ADME, human; conditions: in vitro flag, mainly based on in vitro determinations
[2] = cited from earlier work; for fu: PBPK input
[3] = cited from earlier work; for CL PO: clinically observed oral (in vivo) clearance, pyronaridine: blood, ref amodiaquine Winstanley et al., DEAQ Akande et al., 2015 8, Scarsi et al., 2014 35, Tarning et al., 2012 36, Orrell et al., 2008 37, DHA Na-Bangchang et al., 2004 42, lumefantrine Lefevre et al., 2002 52, Hoglund et al., 2015 53, mefloquine Charles et al., 2007 56, pyronaridine Jittama
[4] = cited from earlier work; for Cmax: read-out: Cmax Obs
[5] = ref Charman et al., 2020 1; cited from earlier work
[6] = Fraction unbound in human liver microsomes (fumic); conditions: extrapolated from value measured at 0.4 mg/mL to 0.1 mg/mL, method of Austin et al., 2002
[7] = 2020 1, cited from earlier work
[8] = lumefantrine: ACD labs value; ref Charman et al., 2020 1; cited from earlier work
[9] = measured (0.4 mg/mL protein where stated); ref Charman et al., 2020 1; cited from earlier work
in vitro = conditions: human, plasma
[10] = cited from earlier work
[11] = PBPK simulation of drug-drug interactions (Simcyp V19); design: species or system human; conditions: for AUC ratios Sim/Obs: ratio of simulated to clinically observed AUC ratio
Source text: Here, we provide three example applications where the available PBPK models were used to address questions relating to DDI assessment. […] Additional simulation methods are provided in Appendix S1.
(§1) All simulations, including the ones performed for the applications, were run using Version 19 of the Simcyp population-based PBPK simulator (Simcyp (Certara), Sheffield, UK) and unless stated otherwise, input parameters for all drugs are as specified (Supplementary Information Table S1). All simulations were run using ten virtual trials that were matched as closely as possible to the clinical study volunteers in terms of the number of subjects, their age, the proportion of males/females and according to the same study design.

[12] = PBPK simulation of plasma Cmax and AUC (Simcyp V19); design: species or system human; conditions: single oral dose named in the block
Source text: as §1
The available clinical PK data for performance verification of simulations was largely in healthy volunteers of either Caucasian or South-East Asian (Thai or Vietnamese) descent. For Caucasian subjects the default Sim-Healthy Volunteers virtual population was used without modification. […] The case study simulations presented in this paper used the Sim-Healthy Volunteers virtual population.

CYP3A4 = CYP3A4 (Homo sapiens, UniProt P08684)
Source text: (§2) In nearly all cases the fraction of systemic elimination metabolised by a given enzyme (fm) determined in vitro was unavailable in the literature.

[13] = Blood to plasma ratio (B:P); conditions: PBPK input; 0.55 = no uptake into RBC for a haematocrit of 45%
[14] = Hepatic / HLM intrinsic clearance, enzyme not defined; conditions: for fm additional / undefined metabolism: human
CYP2C19 = CYP2C19 (Homo sapiens, UniProt P33261); experiment: Metabolism by CYP2C19 (CLint, fm); format: in vitro ADME
Source text: as §2

[15] = ref atovaquone Mepron Prescribing Information, 2008, Nixon et al., 2013 13, Rolan et al., 1997 14, azithromycin Foulds et al., 1990 20, chloroquine Ofori-Adjei et al., 1986 27, Walker et al., 1983 28, DHA Batty et al., 2004 41 (healthy volunteers), lumefantrine CDER submission 22-269, proguanil Wattanagoon et al., 1987 63, tafenoquine Dow et al., 2020 84
[16] = 200 mg SD, 0-inf, ref Wattanagoon et al., 1987 17
[17] = amodiaquine 600 mg SD (Day 6) + trimethoprim 160 mg QD (7 Days), ref Akande et al., 2015 1
[18] = PBPK input, ref amodiaquine, DEAQ Winstanley et al., 1987 9, atovaquone Rolan et al., 1997 14, azithromycin Lalak et al., 1993 23, carboxyprimaquine Mihaly et al., 1985 26, chloroquine Walker et al., 1987 29, DHA EMA Website, 44, doxycycline Raghuram et al., 1982 48, Nguyen et al., 1989 49, mefloquine Schwartz et al., 1982 57, primaquine White, 1985 62, proguanil Jeppesen et al., 1997 34, pyrimeth
[19] = 1987 9, proguanil Jeppesen et al., 1997 34
[20] = DDI of the respective line of Table S3
[21] = ratio of simulated to clinically observed Cmax ratio, DDI of the respective line of Table S3
[22] = from observed differences in metabolite formation, Jeppesen et al., 1997

CYP2C19, sequence (P33261 whole entry): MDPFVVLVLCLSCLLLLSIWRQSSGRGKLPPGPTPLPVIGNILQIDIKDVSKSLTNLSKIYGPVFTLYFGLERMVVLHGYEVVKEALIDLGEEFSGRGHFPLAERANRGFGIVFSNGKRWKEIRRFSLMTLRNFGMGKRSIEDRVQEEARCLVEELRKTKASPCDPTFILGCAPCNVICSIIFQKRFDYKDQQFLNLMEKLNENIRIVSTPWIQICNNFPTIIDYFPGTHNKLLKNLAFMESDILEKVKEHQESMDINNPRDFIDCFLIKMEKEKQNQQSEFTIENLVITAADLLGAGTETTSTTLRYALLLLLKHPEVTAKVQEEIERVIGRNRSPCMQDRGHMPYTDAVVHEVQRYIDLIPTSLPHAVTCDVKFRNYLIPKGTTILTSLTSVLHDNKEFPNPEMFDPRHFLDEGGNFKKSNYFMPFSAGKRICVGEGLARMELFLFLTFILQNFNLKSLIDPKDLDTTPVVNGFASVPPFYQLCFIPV
CYP3A4, sequence (P08684 whole entry): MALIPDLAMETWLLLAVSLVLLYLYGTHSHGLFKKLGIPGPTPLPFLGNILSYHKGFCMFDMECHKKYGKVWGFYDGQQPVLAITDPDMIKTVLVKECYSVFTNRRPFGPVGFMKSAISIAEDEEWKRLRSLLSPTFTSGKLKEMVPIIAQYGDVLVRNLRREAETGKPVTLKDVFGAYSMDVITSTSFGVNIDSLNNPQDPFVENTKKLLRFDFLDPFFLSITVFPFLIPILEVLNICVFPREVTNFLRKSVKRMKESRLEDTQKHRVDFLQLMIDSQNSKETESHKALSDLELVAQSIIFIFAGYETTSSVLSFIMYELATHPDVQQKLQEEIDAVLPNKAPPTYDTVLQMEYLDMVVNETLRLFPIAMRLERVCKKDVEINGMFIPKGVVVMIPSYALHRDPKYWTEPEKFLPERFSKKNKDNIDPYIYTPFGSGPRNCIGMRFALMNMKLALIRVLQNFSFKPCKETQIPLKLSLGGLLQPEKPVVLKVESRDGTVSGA

SMILES: O=C1C(O)=C([C@H]2CC[C@H](c3ccc(Cl)cc3)CC2)C(=O)c2ccccc21 [Atovaquone, atovaquone]
Caco-2 (Papp A-B) (Caco-2 cells): 300 10-6 cm/s | Risk as a perpetrator [1]: BCRP inhibitor | Risk as a victim [1]: Cleared by biliary excretion | fu [2, 15]: 0.001 | CL IV ([3]; clinically observed, ref atovaquone Lavelle et al., 1994 17, chloroquine Walker et al., 1987 29, Gustafsson et al., 1983 30, doxycycline Raghuram et al., 1982 48, Nguyen et al., 1989 49, primaquine Mihaly et al., 1985 26, quinine White et al., 1983 77, Paintaud et al., 1993 78): 0.62 L/h | CL renal ([3]; in vivo): 0 L/h | fe (fraction excreted unchanged in urine) ([3]; in vivo): < 0.6% | AUC Obs ([4]; 250 mg QD, 0-24 h, ref Thapar et al., 2002 10): 254 µM·h | AUC Obs ([4]; 250 mg SD, 0-inf, ref Thapar et al., 2002 10): 295 µM·h | AUC Obs ([4]; 500 mg SD, AUC window Unknown, ref Rolan et al., 1994 9): 288000 ng·h/mL | Cmax Obs ([4]; 500 mg SD, ref Rolan et al., 1994 9): 4400 ng/mL | Cmax ([4]; 250 mg QD, ref Thapar et al., 2002 10): 13.8 µM | Cmax ([4]; 250 mg SD, ref Thapar et al., 2002 10): 3.7 µM | pKa(s) [5]: 4.28

SMILES: CCNCc1cc(Nc2ccnc3cc(Cl)ccc23)ccc1O [DEAQ, desethylamodiaquine]
fraction unbound (in vitro): 0.26 | B:P ([7]; PBPK input, ref artemether Colussi et al., 1999 11, atovaquone Rolan et al., 1997 14, Beerahee, 1999 16, Charman et al., azithromycin Pene Dumitrescu et al., 2013 21, DEAQ Winstanley et al., 1987 9, proguanil weighted mean Helsby et al., 1993 61, Wattanagoon et al., 1987 63): 3 | AUC ratio Obs [10, 17]: 0.874 | Cmax ratio Obs [10, 17]: 0.75 | Main binding protein ([2]; ref amodiaquine, DEAQ Hietala, 2009 2, atovaquone Nixon et al., 2013 13, DHA Batty et al., 2004 41, mefloquine, tafenoquine (also AGP) Zsila et al., 2008 54): AGP | CL renal [3, 18]: 1.4 L/h | CL PO [3, 19]: 32 L/h | AUC Obs ([4]; 600 mg QD (Day 3), 0-96 h, ref Scarsi et al., 2014 1): 14571 ng·h/mL | Cmax Obs ([4]; 600 mg QD (Day 3), ref Scarsi et al., 2014 1): 495 ng/mL | AUC ratios Sim/Obs [11, 20]: 0.89 | Cmax ratios Sim/Obs [11, 21]: 1.00

SMILES: CCCCN(CCCC)CC(O)c1cc(Cl)cc2c1-c1ccc(Cl)cc1/C2=C/c1ccc(Cl)cc1 (stereo not drawn) [Lumefantrine, lumefantrine]
predicted AUC0-inf as % of the observed value [12]: approximately 66% | predicted Cmax as % of the observed value [12]: approximately 62% | fmCYP3A4 (CYP3A4): 40% | CLint CYP3A4 (CYP3A4; microsomes): 0.9 µL/min/pmol | Risk as a perpetrator [1]: CYP2D6 inhibitor | Risk as a victim [1]: Substrate of CYP3A4 | AUC reduction ([10]; human, in vivo): 56% | fu [2, 15]: 0.003 | B:P [13]: 0.55 | CL PO [3, 19]: 3.5 L/h | AUC Obs ([4]; 480 mg BID (Day 3) PM, 60-324 h, ref Huang et al., 2012 8): 418000 ng·h/mL | AUC Obs ([4]; 480 mg BID (Day 3) PM, 62-480 h, ref Lefevre et al., 2002 7): 383000 ng·h/mL | Cmax Obs ([4]; 480 mg BID (Day 3) PM, ref Huang et al., 2012 8): 11600 ng/mL | Cmax Obs ([4]; 480 mg BID (Day 3) PM, ref Lefevre et al., 2002 7): 10000 ng/mL | AUC Obs ([4]; 480 mg SD, 0-264 h, ref Lefevre et al., 2013 6): 236000 ng·h/mL | AUC Obs ([4]; 480 mg SD, 0-inf, ref Lefevre et al., 2002 5): 207000 ng·h/mL | Cmax Obs ([4]; 480 mg SD, ref Lefevre et al., 2002 5): 7910 ng/mL | Cmax Obs ([4]; 480 mg SD, ref Lefevre et al., 2013 6): 8920 ng/mL | fm additional / undefined metabolism [14]: 60% | Cmax ratios Sim/Obs ([11]; Day 7 concentrations, 480 mg BID (Day 22-24) + rifampicin 600 mg QD (Days 1-46)): 0.23 | Cmax ratios Sim/Obs [11, 21]: 0.61 and 0.92 and 1.08 and 1.06

More lines, main results first:

fumic [6]: 0.911
SMILES: CC1(C)N=C(N)N=C(N)N1c1ccc(Cl)cc1 [Cycloguanil, cycloguanil]
B:P ([7]; ref Charman et al.): 0.71 | Log D pH 7.4 [8]: 1.1 | fu ([2]; ref Charman et al., 2020 1): 0.75 | fumic [9]: 0.72 | AUC Obs ([4]; 200 mg QD (Day 14) EM, 0-24 h, ref Helsby et al., 1993 19): 3170 ng·h/mL | AUC Obs ([4]; 200 mg QD (Day 14) PM, 0-24 h, ref Helsby et al., 1993 19): 1190 ng·h/mL | AUC Obs ([4]; 200 mg SD EM, 0-72 h, ref Helsby et al., 1993 19): 2350 ng·h/mL | AUC Obs ([4]; 200 mg SD PM, 0-72 h, ref Helsby et al., 1993 19): 983 ng·h/mL | AUC Obs [4, 16]: 661 ng·h/mL | Cmax Obs ([4]; 200 mg SD, ref Wattanagoon et al., 1987 17): 41 ng/mL

fumic [6]: 0.66 | CLint CYP3A4 formation of cycloguanil (CYP3A4): 0.013 µL/min/pmol | fmCYP3A4 (CYP3A4): 3% | Risk as a perpetrator [1]: CYP2D6 inhibitor | Risk as a victim [1]: Substrate of CYP2C19 and CYP3A4 | fmCYP2C19 (CYP2C19; fraction metabolised used in the PBPK model (proguanil: total, all routes)): 36% | fmCYP2C19, additional (CYP2C19; [22]): 9% | fmCYP2C19, formation of CPBG (CYP2C19; [22]): 8% | fmCYP2C19, formation of cycloguanil (CYP2C19; [22]): 17% | CLint CYP2C19 - additional (CYP2C19; retrograde calculations): 1.25 µL/min/pmol | CLint CYP2C19-mediated formation of 4-Chlorphenylbiguanide (CPBG) (CYP2C19; retrograde calculations): 1.07 µL/min/pmol | CLint CYP2C19-mediated formation of Cycloguanil (CYP2C19; retrograde calculations from CL PO): 2.23 µL/min/pmol | fm additional / undefined metabolism [14]: 25% | Additional Undefined metabolism ([14]; retrograde calculations): 13.46 µL/min/pmol | AUC ratios Sim/Obs [11, 20]: 1.01 and 0.80
SMILES: [H]/N=C(\N/C(=N/[H])Nc1ccc(Cl)cc1)NC(C)C [Proguanil, proguanil]
Caco-2 (Papp A-B) (Caco-2 cells): 3.5 10-6 cm/s | CL renal [3, 18]: 26.64 L/h | CL PO [3, 19]: 86.4 L/h | fe (fraction excreted unchanged in urine) ([3]; in vivo): 36% | Cmax Obs ([4]; 200 mg QD (Day 14) EM, ref Helsby et al., 1993 19): 190 ng/mL | Cmax Obs ([4]; 200 mg QD (Day 14) PM, ref Helsby et al., 1993 19): 338 ng/mL | AUC Obs ([4]; 200 mg SD EM, 0-inf, ref Helsby et al., 1990 18): 3396 ng·h/mL | Cmax Obs ([4]; 200 mg SD EM, ref Helsby et al., 1993 19): 209 ng/mL | AUC Obs ([4]; 200 mg SD PM, 0-inf, ref Helsby et al., 1990 18): 6563 ng·h/mL | Cmax Obs ([4]; 200 mg SD PM, ref Helsby et al., 1993 19): 273 ng/mL | Cmax Obs ([4]; 200 mg SD, dose corrected to free base for simulations, ref Wattanagoon et al., 1987 17): 170 ng/mL | AUC Obs [4, 16]: 2975 ng·h/mL
